This note sets out measurements from patent EP1018866B1, “COMPOSITIONS AND METHODS FOR THE PRESERVATION OF LIVING TISSUES” (Biostore New Zealand Limited, priority 1996, dated 1997).

This assay concerns mouse embryos. The assay can be described thus: Storage of mouse embryos in Solution 70/30 at 4 °C with or without sodium butyrate pretreatment. The class given is cell-based.

Method: Mouse embryos were incubated with either sodium butyrate or a Class II solute at either room temperature, 30 °C or 4 °C prior to storage in Solution 70/30 for up to five days at 4 °C. […] Sodium butyrate replaced sodium chloride at the same concentration in PBS.

Consider `CCCC(=O)[O-].[Na+]` [sodium butyrate], for which the embryos hatched result (pretreatment with higher concentrations of sodium butyrate, 5 days of storage in Solution 70/30) is reported as “up to 70%”. In addition, for the setting “pretreatment with sodium butyrate, three days of storage in Solution 70/30 at 4 °C”, the embryos to hatch result is recorded as “up to 80%”.
